Assay results from PMC11189516, “Structure-guided conversion from an anaplastic lymphoma kinase inhibitor into Plasmodium lysyl-tRNA synthetase selective inhibitors” (Communications Biology, 2024).
pEC50, pIC50, pKd: −log10 of the molar value. Where “and” joins values, the source holds several entries; their conditions need not be identical. Identical values can stand only once. Like-named read-outs stand apart in the source and are kept apart here.

Assays:
[1] = molecular target: T1, PfLysRS (Plasmodium falciparum, UniProt Q8IDJ8); assay: Thermal shift assay; type: binding
T1 construct: PfLysRS (77–583) was constructed in the vector pET20b, with a C-terminal 6×His tag; 6xHis (C); made in house; host or cells: E. coli BL21 (DE3)
T1 sequence (Q8IDJ8 entry or part of it): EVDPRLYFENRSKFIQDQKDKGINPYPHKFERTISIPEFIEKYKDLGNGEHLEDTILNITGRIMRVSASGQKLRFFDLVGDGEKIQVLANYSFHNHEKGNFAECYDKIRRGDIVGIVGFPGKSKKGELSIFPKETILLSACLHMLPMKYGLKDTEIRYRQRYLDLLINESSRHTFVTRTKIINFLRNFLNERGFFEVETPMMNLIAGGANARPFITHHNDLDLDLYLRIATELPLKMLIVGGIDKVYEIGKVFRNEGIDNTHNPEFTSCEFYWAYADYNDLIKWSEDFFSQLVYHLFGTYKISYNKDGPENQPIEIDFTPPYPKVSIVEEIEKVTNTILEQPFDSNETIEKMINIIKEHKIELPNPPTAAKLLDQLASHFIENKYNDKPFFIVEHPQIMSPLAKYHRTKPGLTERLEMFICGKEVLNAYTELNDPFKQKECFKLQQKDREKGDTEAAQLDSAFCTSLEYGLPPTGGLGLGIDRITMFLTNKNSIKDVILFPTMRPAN
Experimental: PfLysRS protein was prepared at 10 μM concentration in a buffer containing 20 mM Tris pH 8.0, 200 mM NaCl, 500 μM L-lysine, and 200 μM Compound. Aliquots (18 µL) were added to a 96-well PCR plate and incubated at ambient temperature for 10 min. SYPRO Orange dye (Sigma) was diluted in the assay buffer containing 20 mM Tris pH 8.0 and 200 mM NaCl to a 40× concentration, and 2 µL of the 40× dye solution was added to the PCR plate to bring the final assay volume to 20 µL. After complete mixing, the final solutions were heated from 25 to 90 °C at a rate of 0.015 °C per sec, and fluorescence signals were monitored by QuantStudio 3 (Applied Biosystems by Thermo Fisher Scientific).

[2] = molecular target: T1, PfLysRS; assay: ATP hydrolysis assay (Kinase-Glo) on PfLysRS; type: biochemical
Experimental: (§1) The ATP hydrolysis assays were based on Kinase-Glo luminescent Kit (Promega). The experiment was carried out in Corning 384-well white flat bottom microplates. The buffer in the reaction contains 25 mM Hepes pH 7.4, 140 mM NaCl, 40 mM MgCl2, 30 mM KCl, 1 mM TCEP, 0.1 mg·mL^−1 BSA, and 0.004% Tween-20. The compounds were diluted to different concentrations with a 5-fold gradient.
(§2) For LysRS assays, DMSO was added into negative control wells and L-lysine was removed in positive control wells. 100 nM LysRS in 2.5 μL Hepes buffer was mixed with compounds and incubated for 10 min. Then 5 μL substrate mixture (2 μM ATP, 10 μM L-lysine and 31 nM pyrophosphatase) was added to start the reaction at 37 °C and incubated for 6 h.
(§3) When the reaction reaches the planned time, 10 μL diluted Kinase-Glo reagent (1/50 diluted with a buffer containing 50 mM Tris pH 7.5 and 5% glycerol) was added and incubated for 15 min. Luminescence was measured on the Magellan plate reader (Tecan) and nonlinear regression was performed with Prism (GraphPad).

[3] = Solubility noted in the cytotoxicity assay; type: physicochemical; conditions: highest concentration limited to 100 μM in cell medium
Experimental: Cell viability was analyzed by Cell Counting Kit-8 (CCK8, ApexBio) according to the manufacturer’s protocols. Cells were seeded and cultured at a density of 2.5 × 10^3 cells per well in 100 μL medium in 96-well microplates (Corning). Then, the cells were treated with different concentrations of compound (0, 1 μM, 3 μM, 10 μM, 100 μM, 300 μM). […] After treatment for 72 h, 10 μL of CCK-8 reagent was added to each well and then cultured for 4 h. All experiments were performed in pentaplicate. The absorbance was analyzed at 450 nm using a microplate reader (Tecan) using medium without cells as blanks. Data was processed using GraphPad Prism 9.

[4] = molecular target: T1, PfLysRS; assay: Surface plasmon resonance (SPR) assay; type: binding; conditions: immobilized PfLysRS
Experimental: PfLysRS was chemically immobilized on a Biacore CM5 sensorchip (immobilization level ~20000 resonance unit/RU) at pH 5.0 according to the immobilization kit (GE Healthcare). PfLysRS (1.7 nM) was captured for 90 s at a flow of 30 µL·min^−1. Affnity between PfLysRS and compounds was measured by SPR on a Biacore 8 K (GE Healthcare) at 25 °C with a running buffer (0.02 M phosphate buffer pH 7.4, 2.7 mM KCl, 0.137 M NaCl, 0.05% Tween 20, with 1 mM L-lysine). The association time was 90 s, the dissociation time was 120 s, and the flowrate was 30 µL·min^−1. Kinetic evaluation of the interaction between LysRS and compounds was performed by global fitting of the data to a 1:1 interaction model using Biacore Evaluation Software 3.1 (GE Healthcare).

[5] = system: erythrocytic-stage P. falciparum 3D7 parasites; assay: In vitro Plasmodium growth assay; type: cell-based, Plasmodium falciparum
Experimental: Parasites were cultured in human O+ erythrocytes according to standard procedures. To prepare the >80% ring stage parasites, asynchronous cultures of parasites were pretreated with 5% sorbitol, and P. falciparum strain 3D7 at the mid-ring stage (6–10 h post-invasion) was used to test antimalarial effects in 96-well plates. Parasites were incubated in a 96-well plate with compound containing 1% parasitemia and, 2% hematocrit for a total volume of 200 μL. […] A relevant DMSO concentration was used as a negative control, and cultured erythrocytes without Plasmodium served as a positive control. The parasites were allowed to grow for 72 h at 37 °C with 5% CO2, 5% O2, and 90% N2. After 72 h, 100 μL of lysis buffer (0.12 mg·mL^−1 Saponin, 0.12% Triton X-100, 30 mM Tris-HCl pH 8.0, and 7.5 mM EDTA) with 5× SYBR Green I (Invitrogen; supplied in 10000× concentration) was added to each well of the plate. The plates were then incubated for 2 h in the dark prior to reading the fluorescence signal at 485 nm excitation and 535 nm emission. The percentage of inhibition was calculated by (NC-fluorescence) × 100/(NC-PC).

[6] = molecular target: T2, HsLysRS (Homo sapiens, UniProt Q15046); assay: ATP hydrolysis assay (Kinase-Glo) on HsLysRS; type: biochemical
T2 construct: HsLysRS (70–581) was constructed in the vector pET20b with a C-terminal 6×His tag; 6xHis (C); made in house; host or cells: E. coli (pET20b; 'purified similarly' to PfLysRS, which was expressed in BL21 (DE3))
T2 sequence (Q15046 70-581): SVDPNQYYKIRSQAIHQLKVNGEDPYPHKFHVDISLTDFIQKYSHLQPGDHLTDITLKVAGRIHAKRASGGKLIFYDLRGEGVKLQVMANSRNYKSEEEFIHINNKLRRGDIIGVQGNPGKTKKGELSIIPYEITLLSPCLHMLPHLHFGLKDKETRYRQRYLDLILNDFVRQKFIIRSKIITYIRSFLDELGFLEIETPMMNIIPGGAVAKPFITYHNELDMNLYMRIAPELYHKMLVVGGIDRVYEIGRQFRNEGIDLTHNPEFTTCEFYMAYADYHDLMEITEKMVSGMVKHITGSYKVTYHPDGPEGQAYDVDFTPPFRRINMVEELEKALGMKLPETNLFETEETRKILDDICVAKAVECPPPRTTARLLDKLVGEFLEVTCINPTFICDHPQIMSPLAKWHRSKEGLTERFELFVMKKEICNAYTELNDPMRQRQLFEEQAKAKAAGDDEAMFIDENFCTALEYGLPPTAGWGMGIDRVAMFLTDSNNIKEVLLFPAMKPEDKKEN
Experimental: as §1, §2, §3

[7] = +Lysine, sheet Figure 6B, in °C (unit assumed)

COc1ccc(OC)c(Nc2ncnc(Nc3ccccc3S(=O)(=O)C(C)C)n2)c1 [Compound 36]
Tm of PfLysRS, Average ([1]; +Lysine): 54.438 °C
Tm of PfLysRS, single repeat ([1]; +Lysine): 54.731 °C and 54.237 °C and 54.854 °C and 53.929 °C
△Tm of PfLysRS ([1]; +Lysine, sheet Figure 6B): 10.644
Tm of PfLysRS, Average [1, 7]: 55.664
Tm of PfLysRS, single repeat [1, 7]: 55.710 and 55.464 and 56.018
Tm of PfLysRS, Average ([1]; -Lysine): 53.158 °C
Tm of PfLysRS, single repeat ([1]; -Lysine): 53.374 °C and 52.819 °C and 53.251 °C and 53.189 °C
ΔTm at 200 µM ([1]; in the absence of L-lysine): 11.7 °C
ΔTm at 200 µM ([1]; in the presence of L-lysine): 11.8 °C
HillSlope (best-fit value) ([2]; PfLysRS): 1.442
LogIC50 (best-fit value) ([2]; PfLysRS, log of nM): 2.296
pIC50 ([2]; PfLysRS, source data, read-out: IC50 (best-fit value)): 6.70
pIC50 ([2]; read-out: IC50 against PfLysRS): 6.70
solubility [3]: poor solubility
koff [4]: 0.0144 s⁻¹
kon [4]: 907000 M/s
pKd ([4]; 1 mM L-lysine in running buffer, read-out: dissociation constant (KD)): 7.80
% Inhibition ([5]; P. falciparum 3D7, Log(Concentration)/nM 2.290, single repeats): -1.297% and 4.596% and -3.299%
% Inhibition ([5]; P. falciparum 3D7, Log(Concentration)/nM 2.592, single repeats): 14.49% and 16.27% and 6.82%
% Inhibition ([5]; P. falciparum 3D7, Log(Concentration)/nM 2.893, single repeats): 56.52% and 50.3% and 49.85%
% Inhibition ([5]; P. falciparum 3D7, Log(Concentration)/nM 3.193, single repeats): 89.44% and 83.77% and 86.88%
% Inhibition ([5]; P. falciparum 3D7, Log(Concentration)/nM 3.496, single repeats): 95.44% and 97.78% and 98.22%
% Inhibition ([5]; P. falciparum 3D7, Log(Concentration)/nM 3.796, single repeats): 97.55% and 97.66% and 100.2%
% Inhibition ([5]; P. falciparum 3D7, Log(Concentration)/nM 4.097, single repeats): 99.56% and 100.2% and 100.1%
% Inhibition ([5]; P. falciparum 3D7, Log(Concentration)/nM 4.398, single repeats): 98.55% and 100.8% and 100.2%
% Inhibition ([5]; P. falciparum 3D7, Log(Concentration)/nM 4.699, single repeats): 98.67% and 100.8% and 100.6%
% Inhibition ([5]; P. falciparum 3D7, Log(Concentration)/nM 5.000, single repeats): 90.1% and 96% and 96.11%
HillSlope (best-fit value) ([5]; Plasmodium falciparum 3D7): 2.726
LogIC50 (best-fit value) ([5]; Plasmodium falciparum 3D7, log of nM): 2.867
pIC50 ([5]; Plasmodium falciparum 3D7, source data, read-out: IC50 (best-fit value)): 6.13
pEC50 ([5]; Plasmodium falciparum, 3D7, 72 h): 6.13
HillSlope (best-fit value) ([6]; HsLysRS): 0.3683
% Inhibition ([6]; HsLysRS, Log(Concentration)/nM 1.806, single repeats): 3.227% and 2.137% and -5.363%
% Inhibition ([6]; HsLysRS, Log(Concentration)/nM 2.505, single repeats): 19.3% and 12.84% and 21.95%
% Inhibition ([6]; HsLysRS, Log(Concentration)/nM 3.204, single repeats): 37.3% and 27.64% and 28.87%
% Inhibition ([6]; HsLysRS, Log(Concentration)/nM 3.903, single repeats): 26.36% and 22.16% and 26.38%
% Inhibition ([6]; HsLysRS, Log(Concentration)/nM 4.602, single repeats): 50.64% and 39% and 42.59%
% Inhibition ([6]; HsLysRS, Log(Concentration)/nM 5.301, single repeats): 74.45% and 64.99% and 63.03%
LogIC50 (best-fit value) ([6]; HsLysRS, log of nM): 5.258
pIC50 ([6]; HsLysRS, source data, read-out: IC50 (best-fit value)): 3.74
pIC50 ([6]; read-out: IC50 against HsLysRS): < 3.74
